Among the test systems are Enterococcus faecalis VR; Enterococcus faecalis; Enterococcus faecium VR; Enterococcus faecium; Staphylococcus aureus MR; Acinetobacter baumannii; Klebsiella pneumoniae; Pseudomonas aeruginosa.
What all share (assay): ≥ marks a high value that may be exact or a test limit, other limits are often not marked, values filed in µg/mL are converted to µM
The subject of experiment [1] is Bacillus subtilis KCTC 3068.
The test system of experiment [2] is Escherichia coli KCTC 1682.
In experiment [3] the test system is Pseudomonas aeruginosa KCTC 1637.
Experiment [4] deals with Salmonella typhimurium KCTC 1926.
In experiment [5] the test system is Staphylococcus aureus KCTC 1621.
The subject of experiment [6] is Staphylococcus epidermidis KCTC 1917.
The test system of experiment [7] is Acinetobacter baumannii ATCC 19606.
In experiment [8] the test system is Bacillus subtilis ATCC 6051.
Experiment [9] deals with Candida albicans ATCC 90028.
For experiment [10], the system named is Cryptococcus neoformans ATCC 208821.
In experiment [11] the test system is Escherichia coli ATCC 25922.
The test system of experiment [12] is Klebsiella pneumoniae ATCC 13883.
In experiment [13] the test system is Klebsiella pneumoniae ATCC 700603.
Experiment [14] relates to Klebsiella pneumoniae ATCC BAA-2146.
In experiment [15] the test system is Pseudomonas aeruginosa ATCC 27853.
In experiment [16] the test system is Staphylococcus aureus ATCC 43300.

The values below come from DBAASP.

Values after ≈ are worked out from the molar mass of the structure shown.

A word on the MIC: it is the lowest concentration found to suppress growth. Low values mean a more susceptible organism, high ones a less susceptible organism. Turning to `CC[C@H](C)[C@H](NC(=O)[C@H](CS)NC(=O)[C@H](Cc1cnc[nH]1)NC(=O)[C@H](C)NC(=O)[C@H](C)N)C(=O)N[C@@H](C)C(=O)N[C@@H](CC(C)C)C(=O)N[C@@H](CCCN=C(N)N)C(=O)N[C@@H](CCCCN)C(=O)NCC(=O)N[C@@H](Cc1ccc(O)cc1)C(=O)N[C@@H](CCCCN)C(N)=O` [AAHCIALRKGYK], the MIC in experiment [1] stood at 30 µM (≈ 39.9 µg/mL); with Enterococcus faecalis VR it was 15 µM (≈ 19.9 µg/mL); against Enterococcus faecalis, 30 µM (≈ 39.9 µg/mL); in the experiment on Enterococcus faecium VR, 30 µM (≈ 39.9 µg/mL); against Enterococcus faecium it was 7.5 µM (≈ 9.97 µg/mL); in experiment [2], 30 µM (≈ 39.9 µg/mL). The MIC (in experiment [3]; in [4]; in experiment [5]; in the experiment on Staphylococcus aureus MR; in [6]) was 30 µM (≈ 39.9 µg/mL) throughout.

Consider `CC[C@H](C)[C@H](NC(=O)[C@H](CS)NC(=O)[C@H](CC(N)=O)NC(=O)[C@H](C)NC(=O)[C@H](C)N)C(=O)N[C@H](C(=O)N[C@@H](CC(C)C)C(=O)NCC(=O)N[C@@H](CCCCN)C(=O)N[C@@H](C)C(N)=O)[C@@H](C)O` [AANCITLGKA], for which the MIC (in [1]; against Enterococcus faecalis VR; against Enterococcus faecalis; in the experiment on Enterococcus faecium VR; with Enterococcus faecium; in [2]) was 30 µM (≈ 28.8 µg/mL) in each case. For the same molecule, the MIC (in experiment [3]; in [4]; in experiment [5]; against Staphylococcus aureus MR; in experiment [6]) was 30 µM (≈ 28.8 µg/mL) throughout.

`CC[C@H](C)[C@H](NC(=O)[C@H](C)N)C(=O)N[C@@H](CCCN=C(N)N)C(=O)N[C@@H](CS)C(=O)N[C@@H](CC(C)C)C(=O)N[C@@H](C)C(=O)N[C@@H](CCCCN)C(=O)N[C@@H](CCCN=C(N)N)C(=O)N[C@@H](CCCN=C(N)N)C(=O)N[C@@H](CCCCN)C(N)=O` [AIRCLAKRRK]: the MIC in [1] came out at 7.5 µM (≈ 9.1 µg/mL); against Enterococcus faecalis VR it was 30 µM (≈ 36.4 µg/mL); with Enterococcus faecalis it was 30 µM (≈ 36.4 µg/mL); against Enterococcus faecium VR, 15 µM (≈ 18.2 µg/mL); with Enterococcus faecium, 3.8 µM (≈ 4.61 µg/mL); in experiment [2], 30 µM (≈ 36.4 µg/mL). Also, the MIC (in experiment [3]; in [4]; in [5]; in the experiment with Staphylococcus aureus MR; in experiment [6]) was 7.5 µM (≈ 9.1 µg/mL) throughout.

With `CC[C@H](C)[C@H](NC(=O)CNC(=O)[C@H](CCCNC(=N)N)NC(=O)[C@H](Cc1ccc(O)cc1)NC(=O)[C@H](C)NC(=O)[C@@H](NC(=O)[C@H](CCCNC(=N)N)NC(=O)[C@H](Cc1ccccc1)NC(=O)[C@H](C)NC(=O)[C@H](Cc1c[nH]c2ccccc12)NC(=O)[C@@H](N)CCCCN)C(C)C)C(=O)N[C@@H](C)C(=O)N[C@@H](Cc1ccc(O)cc1)C(=O)N[C@@H](CCCNC(=N)N)C(=O)N[C@@H](CCCNC(=N)N)C(=O)N[C@@H](C)C(=O)N[C@@H](CCCNC(=N)N)C(N)=O` [KWAFRVAYRGIAYRRAR], the minimal inhibitory concentration (MIC) in [7] was 1.87 µM (≈ 4 µg/mL); in the experiment on Acinetobacter baumannii, 1.87 µM (≈ 4 µg/mL); in [8] it was 0.467 µM (≈ 1 µg/mL); in experiment [9], 7.47 µM (≈ 16 µg/mL); in [10] it was 0.467 µM (≈ 1 µg/mL); in [11], 3.74 µM (≈ 8 µg/mL). The MIC in [12] was 7.47 µM (≈ 16 µg/mL); in experiment [13] it was 7.47 µM (≈ 16 µg/mL); in [14], 7.47 µM (≈ 16 µg/mL); with Klebsiella pneumoniae it was above 7.47 µM; in experiment [15] it was above 7.47 µM; against Pseudomonas aeruginosa, above 7.47 µM. In addition, the MIC in experiment [16] amounted to 7.47 µM (≈ 16 µg/mL).

For `CC[C@H](C)[C@@H]1NC(=O)CNC(=O)[C@H](CCCN=C(N)N)NC(=O)[C@H](Cc2ccc(O)cc2)NC(=O)[C@@H]2CSSC[C@H](NC1=O)C(=O)N[C@@H](C)C(=O)N[C@@H](CCCN=C(N)N)C(=O)N[C@@H](CCCN=C(N)N)C(=O)N[C@H](C(=O)N[C@@H](CCCN=C(N)N)C(=O)O)CSSC[C@H](NC(=O)[C@H](Cc1c[nH]c3ccccc13)NC(=O)[C@@H](N)CCCCN)C(=O)N[C@@H](Cc1ccccc1)C(=O)N[C@@H](CCCN=C(N)N)C(=O)N[C@@H](C(C)C)C(=O)N2` [KWCFRVCYRGICARRCR], the minimum inhibitory concentration (MIC) in [7] turned out to be 0.0574 µM (≈ 0.125 µg/mL); in the experiment with Acinetobacter baumannii, 0.115 µM (≈ 0.25 µg/mL); in [8], 0.0276 µM (≈ 0.06 µg/mL); in experiment [9], 1.84 µM (≈ 3.99 µg/mL); in [10], 0.23 µM (≈ 0.499 µg/mL); in [11], 0.115 µM (≈ 0.25 µg/mL). Moreover, the minimum inhibitory concentration (MIC) turned out to be 0.115 µM (≈ 0.25 µg/mL) in experiment [12]; 0.23 µM (≈ 0.499 µg/mL) in [13]; 0.23 µM (≈ 0.499 µg/mL) in [14]; 3.68 µM (≈ 7.99 µg/mL) against Klebsiella pneumoniae; 0.23 µM (≈ 0.499 µg/mL) in [15]; 0.919 µM (≈ 2 µg/mL) in the experiment with Pseudomonas aeruginosa. The same molecule came in with an MIC in experiment [16] of 1.84 µM (≈ 3.99 µg/mL).

For the molecule `CC[C@H](C)[C@@H]1NC(=O)CNC(=O)[C@H](CCCN=C(N)N)NC(=O)[C@H](Cc2ccc(O)cc2)NC(=O)[C@@H]2CSSC[C@H](NC1=O)C(=O)N[C@@H](Cc1ccc(O)cc1)C(=O)N[C@@H](CCCN=C(N)N)C(=O)N[C@@H](CCCN=C(N)N)C(=O)N[C@H](C(=O)N[C@@H](CCCN=C(N)N)C(=O)O)CSSC[C@H](NC(=O)[C@H](Cc1c[nH]c3ccccc13)NC(=O)[C@@H](N)CCCN=C(N)N)C(=O)N[C@@H](Cc1ccccc1)C(=O)N[C@@H](CCCN=C(N)N)C(=O)N[C@@H](C(C)C)C(=O)N2` [RWCFRVCYRGICYRRCR], the minimal inhibitory concentration (MIC) in experiment [7] was 0.0544 µM (≈ 0.125 µg/mL); against Acinetobacter baumannii, 0.109 µM (≈ 0.249 µg/mL); in [8], 0.0544 µM (≈ 0.125 µg/mL); in experiment [9] it was 1.74 µM (≈ 3.99 µg/mL); in experiment [10] it was 0.109 µM (≈ 0.249 µg/mL); in experiment [11] it was 0.0544 µM (≈ 0.125 µg/mL). Also, the MIC in experiment [12] was 0.0544 µM (≈ 0.125 µg/mL); in [13], 0.218 µM (≈ 0.499 µg/mL); in [14] it was 0.109 µM (≈ 0.249 µg/mL); in the experiment with Klebsiella pneumoniae, 1.74 µM (≈ 3.99 µg/mL); in experiment [15], 0.109 µM (≈ 0.249 µg/mL); against Pseudomonas aeruginosa, 0.218 µM (≈ 0.499 µg/mL). Further, the MIC in [16] amounted to 0.435 µM (≈ 0.998 µg/mL).
